Assay results from ChEMBL document CHEMBL1201862, “PubChem BioAssay data set” (2004).
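Each compound was tested at five concentrations against cells in 96-well plates for 48 hours. Abbreviation: GI50, concentration required for 50% inhibition of growth.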 Calls of active or inactive are those of the source. Cut-off read from the data, not from the text of the source: active = GI50 up to about 1.1 µM and inactive = higher.

Key:
Test in all cases: inhibition of tumour cell growth, NCI panel, 48 h
786-0 = test system: 786-0
A498 = test system: A498
A549 = test system: A549
ACHN = test system: ACHN
BT-549 = test system: BT-549
CAKI-1 = test system: CAKI-1
CCRF-CEM = test system: CCRF-CEM
COLO 205 = test system: COLO 205
DU-145 = test system: DU-145
EKVX = test system: EKVX
HCC 2998 = test system: HCC 2998
HCT-116 = test system: HCT-116
HCT-15 = test system: HCT-15
HL-60 = test system: HL-60
HOP-62 = test system: HOP-62
HOP-92 = test system: HOP-92
HT-29 = test system: HT-29
Hs-578T = test system: Hs-578T
IGROV-1 = test system: IGROV-1
K562 = test system: K562
KM12 = test system: KM12
LOX IMVI = test system: LOX IMVI
M14 = test system: M14
MCF7 = test system: MCF7
MDA-MB-435 = test system: MDA-MB-435
MDA-N = test system: MDA-N
MOLT-4 = test system: MOLT-4
Malme-3M = test system: Malme-3M
NCI-H226 = test system: NCI-H226
NCI-H23 = test system: NCI-H23
NCI-H522 = test system: NCI-H522
NCI/ADR-RES = test system: NCI/ADR-RES
OVCAR-3 = test system: OVCAR-3
OVCAR-4 = test system: OVCAR-4
OVCAR-5 = test system: OVCAR-5
OVCAR-8 = test system: OVCAR-8
PC-3 = test system: PC-3
RPMI-8226 = test system: RPMI-8226
RXF 393 = test system: RXF 393
SF-268 = test system: SF-268
SF-295 = test system: SF-295
SF-539 = test system: SF-539
SK-MEL-28 = test system: SK-MEL-28
SK-MEL-2 = test system: SK-MEL-2
SK-MEL-5 = test system: SK-MEL-5
SK-OV-3 = test system: SK-OV-3
SN12C = test system: SN12C
SNB-19 = test system: SNB-19
SNB-75 = test system: SNB-75
SR = test system: SR
SW-620 = test system: SW-620
T47D = test system: T47D
UACC-257 = test system: UACC-257
UACC-62 = test system: UACC-62
UO-31 = test system: UO-31
MDA-MB-231 = test system: MDA-MB-231
NCI-H460 = test system: NCI-H460
TK-10 = test system: TK-10
U-251 = test system: U-251

Measured: GI50

COc1cc(NC(C)=O)ccc1C(=O)N/N=C/c1ccc(Cl)cc1Cl
83 µM: HCT-15
inactive: 786-0 24.9 µM | A498 24.1 µM | A549 48 µM | ACHN 31.4 µM | BT-549 > 100 µM | CAKI-1 39.6 µM | CCRF-CEM 95.3 µM | COLO 205 > 100 µM | DU-145 26.3 µM | EKVX 32.7 µM | HCC 2998 57.1 µM | HCT-116 80.5 µM | HL-60 46.6 µM | HOP-62 29.6 µM | HOP-92 35.4 µM | HT-29 > 100 µM | Hs-578T 32.7 µM | IGROV-1 30.2 µM | K562 50.2 µM | KM12 33 µM | LOX IMVI 69.2 µM | M14 48.1 µM | MCF7 4.42 µM | MDA-MB-435 19.6 µM | MDA-N 23.6 µM | MOLT-4 73.8 µM | Malme-3M 57.1 µM | NCI-H226 77.1 µM | NCI-H23 71.9 µM | NCI-H522 45.2 µM | NCI/ADR-RES > 100 µM | OVCAR-3 52.8 µM | OVCAR-4 23.2 µM | OVCAR-5 46.3 µM | OVCAR-8 48.9 µM | PC-3 34.8 µM | RPMI-8226 65.6 µM | RXF 393 20.7 µM | SF-268 32.6 µM | SF-295 57 µM | SF-539 87.7 µM | SK-MEL-28 59.4 µM | SK-MEL-2 19.2 µM | SK-MEL-5 77.3 µM | SK-OV-3 29.7 µM | SN12C 22.4 µM | SNB-19 42.8 µM | SNB-75 13.6 µM | SR 18.2 µM | SW-620 > 100 µM | T47D 16.3 µM | UACC-257 27 µM | UACC-62 31.6 µM | UO-31 43.1 µM

NC(C(=O)O)C(N)C(=O)O (stereo unspecified)
> 100 µM: HCT-15
inactive: 786-0 > 100 µM | A498 > 100 µM | A549 > 100 µM | ACHN > 100 µM | BT-549 > 100 µM | CAKI-1 > 100 µM | COLO 205 > 100 µM | DU-145 > 100 µM | EKVX > 100 µM | HCT-116 > 100 µM | HL-60 > 100 µM | HOP-62 > 100 µM | HOP-92 > 100 µM | HT-29 > 100 µM | Hs-578T > 100 µM | IGROV-1 > 100 µM | K562 > 100 µM | KM12 > 100 µM | LOX IMVI > 100 µM | M14 > 100 µM | MCF7 > 100 µM | MDA-MB-231 > 100 µM | MDA-N > 100 µM | MOLT-4 > 100 µM | Malme-3M > 100 µM | NCI-H226 > 100 µM | NCI-H23 > 100 µM | NCI-H460 > 100 µM | NCI-H522 > 100 µM | NCI/ADR-RES > 100 µM | OVCAR-3 > 100 µM | OVCAR-4 > 100 µM | OVCAR-5 > 100 µM | OVCAR-8 > 100 µM | PC-3 > 100 µM | RPMI-8226 > 100 µM | RXF 393 > 100 µM | SF-268 > 100 µM | SF-295 > 100 µM | SF-539 > 100 µM | SK-MEL-28 > 100 µM | SK-MEL-2 > 100 µM | SK-MEL-5 > 100 µM | SK-OV-3 > 100 µM | SN12C > 100 µM | SNB-19 > 100 µM | SR > 100 µM | SW-620 > 100 µM | T47D > 100 µM | TK-10 > 100 µM | U-251 > 100 µM | UACC-257 > 100 µM | UACC-62 > 100 µM | UO-31 > 100 µM

COc1cc(C(=O)NNC(=O)c2cc(Br)ccc2NC(=O)c2cccs2)cc(OC)c1OC
active: K562 < 0.01 µM
inactive: 786-0 17.7 µM | A498 19.1 µM | A549 21.2 µM | ACHN 17 µM | BT-549 22.3 µM | CAKI-1 29 µM | CCRF-CEM 18.1 µM | COLO 205 12.9 µM | DU-145 29.3 µM | EKVX 6.65 µM | HCT-116 18.7 µM | HL-60 14.8 µM | HOP-62 16.3 µM | HOP-92 15.3 µM | HT-29 19.5 µM | Hs-578T 20.9 µM | IGROV-1 22.6 µM | KM12 22.8 µM | LOX IMVI 15.3 µM | M14 19.3 µM | MCF7 14.4 µM | MDA-MB-435 19.8 µM | MDA-N 24.8 µM | MOLT-4 27.1 µM | Malme-3M 23.2 µM | NCI-H226 13.7 µM | NCI-H23 19.4 µM | NCI-H460 20.2 µM | NCI-H522 20.7 µM | NCI/ADR-RES 18.5 µM | OVCAR-3 24.2 µM | OVCAR-4 12 µM | OVCAR-5 16.4 µM | OVCAR-8 19.1 µM | PC-3 24 µM | RPMI-8226 13.2 µM | RXF 393 13.1 µM | SF-268 9.64 µM | SF-295 19.1 µM | SF-539 15.4 µM | SK-MEL-2 18.6 µM | SK-MEL-5 13.8 µM | SK-OV-3 9.16 µM | SN12C 20 µM | SNB-19 23.1 µM | SNB-75 4.91 µM | SR 22.9 µM | SW-620 28.1 µM | T47D 19.5 µM | TK-10 25.3 µM | U-251 17.1 µM | UACC-257 22.5 µM | UACC-62 16.7 µM | UO-31 14.4 µM
15.5 µM: HCT-15
